# Assay results published in patent US20150344540A1, “NOVEL GLP-1 RECEPTOR AGONISTS WITH CHOLESTEROL EFFLUX ACTIVITY” (NOVO NORDISK A/S, priority 2012, published 2015).
# Read-outs that look alike come from different tables or passages of the source. Where a SMILES comes first, the peptide text is derived from it. [ ]: non-standard residue; d: D form. Aib = CC(C)(N)C(=O)O
# Columns and labels:
# [1] = test system: Mouse monocyte/macrophage cell line, RAW 264.7; assay: Cholesterol efflux assay (3H-cholesterol, macrophage cell line); assay type: cell-based; details: RAW 264.7, 4 hrs incubation, 0.1% human serum albumin; for 4 h Cholesterol Efflux Emax: ABCA1-mediated efflux
# [2] = molecular target: human GLP-1 receptor (Homo sapiens, UniProt P43220); assay: Functional GLP-1 receptor assay, in vitro potency (CRE luciferase; whole cells); assay type: cell-based; details: BHK cells expressing human GLP-1 receptor
# human GLP-1 receptor, sequence (P43220 24-463): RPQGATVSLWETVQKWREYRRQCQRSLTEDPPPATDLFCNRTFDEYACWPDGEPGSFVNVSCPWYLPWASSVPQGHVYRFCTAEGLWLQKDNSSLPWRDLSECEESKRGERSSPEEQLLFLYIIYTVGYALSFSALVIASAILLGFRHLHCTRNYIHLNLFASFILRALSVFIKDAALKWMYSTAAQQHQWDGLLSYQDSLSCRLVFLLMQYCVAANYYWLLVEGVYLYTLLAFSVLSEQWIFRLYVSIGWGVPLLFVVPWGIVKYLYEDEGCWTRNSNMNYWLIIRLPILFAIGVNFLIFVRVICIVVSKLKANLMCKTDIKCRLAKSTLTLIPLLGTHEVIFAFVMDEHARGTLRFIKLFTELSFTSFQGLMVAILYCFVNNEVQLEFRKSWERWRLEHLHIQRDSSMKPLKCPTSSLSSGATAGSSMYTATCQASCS
# [3] = GLP1R CRE luc 1% HSA EC50 Mean Value, 1% HSA
# [4] = 0% HSA, read-out: GLP1R CRE luc 0% HSA EC50 Mean Value
"EC50 [2, 3]","EC50 [2, 4]",Compound,"EC50 ([1]; read-out: 4 h Cholesterol Efflux EC50, ABCA1-mediated efflux (CPT-cAMP induced minus non-induced))","EC50 ([2]; GLP1R CRE luc 0% HSA EC50 Mean Value, 0% HSA)",4 h Cholesterol Efflux Emax [1]
0.043 nM,0.103 nM,"CC[C@H](C)[C@H](NC(=O)[C@H](Cc1ccccc1)NC(=O)[C@H](CCC(=O)O)NC(=O)[C@H](CCCCN)NC(=O)[C@@H](NC(=O)[C@H](C)NC(=O)[C@H](CCC(=O)O)NC(=O)CNC(=O)[C@H](CCC(=O)O)NC(=O)[C@H](CC(C)C)NC(=O)[C@H](Cc1ccc(O)cc1)NC(=O)[C@H](CO)NC(=O)[C@H](CO)NC(=O)[C@@H](NC(=O)[C@H](CC(=O)O)NC(=O)[C@H](CO)NC(=O)[C@@H](NC(=O)[C@H](Cc1ccccc1)NC(=O)[C@@H](NC(=O)CNC(=O)[C@H](CCC(=O)O)NC(=O)C(C)(C)NC(=O)[C@@H](N)Cc1c[nH]cn1)[C@@H](C)O)[C@@H](C)O)C(C)C)C(C)C)C(=O)N[C@@H](CCCCN)C(=O)N[C@@H](Cc1c[nH]c2ccccc12)C(=O)N[C@@H](CC(C)C)C(=O)N[C@H](C(=O)N[C@@H](CCC(=O)O)C(=O)N[C@@H](CCCCN)C(=O)NC(C)(C)C(=O)N[C@@H](CCCCN)C(=O)N[C@@H](CCC(=O)O)C(=O)N[C@@H](Cc1ccccc1)C(=O)N[C@@H](CC(C)C)C(N)=O)C(C)C [Compound 86, [Aib8,Glu23,Val25,Lys30,Glu34,Lys35,Aib36,Lys37]-GLP-1-(7-37)-peptidyl-Glu-Phe-Leu amide] (H-H[Aib]EGTFTSDVSSYLEGEAVKEFIKWLVEK[Aib]KEFL-NH2)",,,102%
0.011 nM,0.03 nM,"H-HAEGTFTSDVSSYLEGQAAKEFIAWLVEKVKEFLEK-OH [Compound 124, [Glu34,Lys35,Val36,Lys37]-GLP-1-(7-37)-peptidyl-Glu-Phe-Leu-Glu-Lys]",,,146%
0.104 nM,,"CC[C@H](C)[C@H](NC(=O)[C@H](Cc1ccccc1)NC(=O)[C@H](CC(C)C)NC(=O)[C@H](CCCCN)NC(=O)[C@@H](NC(=O)[C@H](C)NC(=O)[C@H](CCC(=O)O)NC(=O)CNC(=O)[C@H](CCC(=O)O)NC(=O)[C@H](CC(C)C)NC(=O)[C@H](Cc1ccc(O)cc1)NC(=O)[C@H](CO)NC(=O)[C@H](CO)NC(=O)[C@@H](NC(=O)[C@H](CC(=O)O)NC(=O)[C@H](CO)NC(=O)[C@@H](NC(=O)[C@H](Cc1ccccc1)NC(=O)[C@@H](NC(=O)CNC(=O)[C@H](CCC(=O)O)NC(=O)C(C)(C)NC(=O)[C@@H](N)Cc1c[nH]cn1)[C@@H](C)O)[C@@H](C)O)C(C)C)C(C)C)C(=O)N[C@@H](C)C(=O)N[C@@H](Cc1c[nH]c2ccccc12)C(=O)N[C@@H](CC(C)C)C(=O)N[C@H](C(=O)N[C@@H](CCC(=O)O)C(=O)N[C@@H](CCCCN)C(=O)NC(C)(C)C(=O)N[C@@H](CCCCN)C(=O)N[C@@H](CCC(=O)O)C(=O)N[C@@H](Cc1ccccc1)C(=O)N[C@@H](CC(C)C)C(N)=O)C(C)C [Compound 28, [Aib8,Glu23,Val25,Leu27,Glu34,Lys35,Aib36,Lys37]-GLP-1-(7-37)-peptidyl-Glu-Phe-Leu amide] (H-H[Aib]EGTFTSDVSSYLEGEAVKLFIAWLVEK[Aib]KEFL-NH2)",,,78%
0.032 nM,,"CC[C@H](C)[C@H](NC(=O)[C@H](Cc1ccccc1)NC(=O)[C@H](CCC(=O)O)NC(=O)[C@H](CCCCN)NC(=O)[C@@H](NC(=O)[C@H](C)NC(=O)[C@H](CCC(=O)O)NC(=O)CNC(=O)[C@H](CCC(=O)O)NC(=O)[C@H](CC(C)C)NC(=O)[C@H](Cc1ccc(O)cc1)NC(=O)[C@H](CO)NC(=O)[C@H](CO)NC(=O)[C@@H](NC(=O)[C@H](CC(=O)O)NC(=O)[C@H](CO)NC(=O)[C@@H](NC(=O)[C@H](Cc1ccccc1)NC(=O)[C@@H](NC(=O)CNC(=O)[C@H](CCC(=O)O)NC(=O)C(C)(C)NC(=O)[C@@H](N)Cc1c[nH]cn1)[C@@H](C)O)[C@@H](C)O)C(C)C)C(C)C)C(=O)N[C@@H](C)C(=O)N[C@@H](Cc1c[nH]c2ccccc12)C(=O)N[C@@H](CC(C)C)C(=O)N[C@H](C(=O)N[C@@H](CCC(=O)O)C(=O)N[C@@H](CCCCN)C(=O)N[C@H](C(=O)N[C@@H](CCCCN)C(=O)NCC(=O)N[C@@H](Cc1ccccc1)C(=O)N[C@@H](CC(C)C)C(N)=O)C(C)C)C(C)C [Compound 115, [Aib8,Glu23,Val25,Glu34,Lys35,Val36,Lys37]-GLP-1-(7-37)-peptidyl-Glv-Phe-Leu amide] (H-H[Aib]EGTFTSDVSSYLEGEAVKEFIAWLVEKVKGFL-NH2)",,,94%
0.062 nM,0.108 nM,CC[C@H](C)[C@H](NC(=O)[C@H](Cc1ccccc1)NC(=O)[C@H](CCC(=O)O)NC(=O)[C@H](CCCCN)NC(=O)[C@@H](NC(=O)[C@H](C)NC(=O)[C@H](CCC(N)=O)NC(=O)CNC(=O)[C@H](CCC(=O)O)NC(=O)[C@H](CC(C)C)NC(=O)[C@H](Cc1ccc(O)cc1)NC(=O)[C@H](CO)NC(=O)[C@H](CO)NC(=O)[C@@H](NC(=O)[C@H](CC(=O)O)NC(=O)[C@H](CO)NC(=O)[C@@H](NC(=O)[C@H](Cc1ccccc1)NC(=O)[C@@H](NC(=O)CNC(=O)[C@H](CCC(=O)O)NC(=O)C(C)(C)NC(=O)[C@@H](N)Cc1c[nH]cn1)[C@@H](C)O)[C@@H](C)O)C(C)C)C(C)C)C(=O)N[C@@H](C)C(=O)N[C@@H](Cc1c[nH]c2ccccc12)C(=O)N[C@@H](CC(C)C)C(=O)N[C@H](C(=O)N[C@@H](CC(N)=O)C(=O)N[C@@H](CCCCN)C(=O)NC(C)(C)C(=O)N[C@@H](C)C(=O)N[C@@H](CCC(=O)O)C(=O)N[C@@H](Cc1ccccc1)C(=O)N[C@@H](CC(C)C)C(N)=O)C(C)C [Compound 73] (H-H[Aib]EGTFTSDVSSYLEGQAVKEFIAWLVNK[Aib]AEFL-NH2),,,86%
0.017 nM,0.041 nM,H-HAEGTFTSDVSSYLEGEAVREFIAWLVERVREFLEK-OH [Compound 138],,,96%
,0.157 nM,"CC[C@H](C)[C@H](NC(=O)[C@H](Cc1ccccc1)NC(=O)[C@H](CCC(=O)O)NC(=O)[C@H](CCCCN)NC(=O)[C@@H](NC(=O)[C@H](C)NC(=O)[C@H](CCC(=O)O)NC(=O)CNC(=O)[C@H](CCC(=O)O)NC(=O)[C@H](CC(C)C)NC(=O)[C@H](Cc1ccc(O)cc1)NC(=O)[C@H](CO)NC(=O)[C@H](CO)NC(=O)[C@@H](NC(=O)[C@H](CC(=O)O)NC(=O)[C@H](CO)NC(=O)[C@@H](NC(=O)[C@H](Cc1ccccc1)NC(=O)[C@@H](NC(=O)CNC(=O)[C@H](CCC(=O)O)NC(=O)C(C)(C)NC(=O)[C@@H](N)Cc1c[nH]cn1)[C@@H](C)O)[C@@H](C)O)C(C)C)C(C)C)C(=O)N[C@@H](Cc1c[nH]c2ccccc12)C(=O)N[C@@H](Cc1c[nH]c2ccccc12)C(=O)N[C@@H](CC(C)C)C(=O)N[C@H](C(=O)N[C@@H](CCC(=O)O)C(=O)N[C@@H](CCCCN)C(=O)NC(C)(C)C(=O)N[C@@H](CCCCN)C(=O)N[C@@H](CCC(=O)O)C(=O)N[C@@H](Cc1ccccc1)C(=O)N[C@@H](CC(C)C)C(N)=O)C(C)C [Compound 50, [Aib8,Glu23,Val25,Trp30,Glu34,Lys35,Aib36,Lys37]-GLP-1-(7-37)-peptidyl-Glu-Phe-Leu amide] (H-H[Aib]EGTFTSDVSSYLEGEAVKEFIWWLVEK[Aib]KEFL-NH2)",,,87%
0.012 nM,0.029 nM,"CC[C@H](C)[C@H](NC(=O)[C@H](Cc1ccccc1)NC(=O)[C@H](CCC(=O)O)NC(=O)[C@H](CCCCN)NC(=O)[C@@H](NC(=O)[C@H](C)NC(=O)[C@H](CCC(=O)O)NC(=O)[C@H](CCC(=O)O)NC(=O)[C@H](CCC(=O)O)NC(=O)[C@H](CC(C)C)NC(=O)[C@H](Cc1ccc(O)cc1)NC(=O)[C@H](CO)NC(=O)[C@H](CO)NC(=O)[C@@H](NC(=O)[C@H](CC(=O)O)NC(=O)[C@H](CO)NC(=O)[C@@H](NC(=O)[C@H](Cc1ccccc1)NC(=O)[C@@H](NC(=O)CNC(=O)[C@H](CCC(=O)O)NC(=O)C(C)(C)NC(=O)[C@@H](N)Cc1c[nH]cn1)[C@@H](C)O)[C@@H](C)O)C(C)C)C(C)C)C(=O)N[C@@H](C)C(=O)N[C@@H](Cc1c[nH]c2ccccc12)C(=O)N[C@@H](CC(C)C)C(=O)N[C@H](C(=O)N[C@@H](CCC(=O)O)C(=O)N[C@@H](CCCCN)C(=O)N[C@H](C(=O)N[C@@H](CCCCN)C(=O)N[C@@H](CCC(=O)O)C(=O)N[C@@H](Cc1ccccc1)C(N)=O)C(C)C)C(C)C [Compound 134, [Aib8,Glu22,Glu23,Val25,Glu34,Lys35,Val36,Lys37]-GLP-1-(7-37)-peptidyl-Glu-Phe amide] (H-H[Aib]EGTFTSDVSSYLEEEAVKEFIAWLVEKVKEF-NH2)",,,134%

Compound,"EC50 [2, 3]","EC50 [2, 4]","EC50 ([1]; read-out: 4 h Cholesterol Efflux EC50, ABCA1-mediated efflux (CPT-cAMP induced minus non-induced))","EC50 ([2]; GLP1R CRE luc 0% HSA EC50 Mean Value, 0% HSA)",4 h Cholesterol Efflux Emax [1]
CC[C@H](C)[C@H](NC(=O)[C@H](Cc1ccccc1)NC(=O)[C@H](CCC(=O)O)NC(=O)[C@H](CCCCN)NC(=O)[C@H](C)NC(=O)[C@H](C)NC(=O)[C@H](CCC(N)=O)NC(=O)[C@H](CCC(=O)O)NC(=O)[C@H](CCC(=O)O)NC(=O)[C@H](CC(C)C)NC(=O)[C@H](Cc1ccc(O)cc1)NC(=O)[C@H](CCCCN)NC(=O)[C@H](CO)NC(=O)[C@H](Cc1ccc(O)cc1)NC(=O)[C@H](CC(=O)O)NC(=O)[C@H](CO)NC(=O)[C@@H](NC(=O)[C@H](Cc1ccccc1)NC(=O)[C@@H](NC(=O)CNC(=O)[C@H](CCC(N)=O)NC(=O)[C@H](CO)NC(=O)[C@@H](N)Cc1c[nH]cn1)[C@@H](C)O)[C@@H](C)O)C(=O)N[C@@H](C)C(=O)N[C@@H](Cc1c[nH]c2ccccc12)C(=O)N[C@@H](CC(C)C)C(=O)N[C@@H](CC(C)C)C(=O)N[C@@H](CCC(=O)O)C(=O)N[C@@H](CCCCN)C(=O)NC(C)(C)C(=O)N[C@@H](CCCCN)C(=O)N[C@@H](CCC(=O)O)C(=O)N[C@@H](Cc1ccccc1)C(=O)N[C@@H](CC(C)C)C(N)=O [Compound 56] (H-HSQGTFTSDYSKYLEEQAAKEFIAWLLEK[Aib]KEFL-NH2; N-terminus assumed),0.061 nM,,210 nM,0.118 nM,
